According to US10647653B2, “Crystal of monovalent cation salt of 3-hydroxyisovaleric acid and process for producing the crystal” (KYOWA HAKKO BIO CO., LTD., priority 2015, dated 2020):
Like-named read-outs stand apart in the source and are kept apart here.

Legend:
[1] = Mixing with 0.2 M phosphate buffer, light transmittance (660 nm) to evaluate insoluble salt formation; assay type: physicochemical
Method: A 100 g/L solution, in terms of free form, was prepared using the crystal of monovalent cation salt nonhydrate of HMB, obtained in each of Examples 2, 5 and 7, and mixed with 0.2 M phosphate buffer (pH: 6.80) in an arbitrary mixing ratio. The solution after mixing was measured for the light transmittance (660 nm) to evaluate the presence or absence of insoluble salt formation. In Table 13, “-” indicates unevaluated.

[2] = Measurement of solubility in water at room temperature (HMB concentration of supernatant by HPLC); assay type: physicochemical
Method: The crystal of monovalent cation salt nonhydrate of HMB, obtained in each of Examples 2, 5 and 7, was added at room temperature until it dissolved in water and after keeping the solution for a sufficient time under stirring, the supernatant containing no crystal was sampled and measured for the HMB concentration by using HPLC.

[3] = pH of aqueous solution of 100 g/L salt crystal in terms of free HMB; assay type: physicochemical
Method: As for pH, an aqueous solution of 100 g/L salt crystal in terms of free HMB was measured.

[4] = rat, in vivo
Method: The solution was continuously administered to a rat on which operative stress was incurred by intestinal tract scratch operation at a normal dose (240 mL/kg/day) for 3 days. On the final day of administration, urine was collected by 24-hour urine collection and measured for the urinary electrolyte concentration.

[5] = assay type: physicochemical
Method: The sodium HMB nonhydrate obtained in Example 2 was mixed with a glucose-amino acids-electrolytes infusion solution for peripheral vain nutrition [pH: about 6.7; Product Name: Aminofluid Infusion Solution (Otsuka Pharmaceutical Factory, Inc.)] to obtain 0, 0.11, 0.21 and 0.42 weight/volume % solutions at final concentration in terms of free form. The light transmittance (660 nm) was measured by ultraviolet and visible spectrophotometer immediately after the mixing or 24 hours after being left at room temperature to evaluate the presence or absence of insoluble salt formation.

[6] = mixing ratio 0.17 Vol/Vol (aqueous 100 g/L HMB solution/0.2M phosphate buffer pH 6.80)
[7] = mixing ratio 0.33 Vol/Vol (aqueous 100 g/L HMB solution/0.2M phosphate buffer pH 6.80)
[8] = mixing ratio 0.57 Vol/Vol (aqueous 100 g/L HMB solution/0.2M phosphate buffer pH 6.80)
[9] = HMB final concentration 0.11 weight/volume % in Aminofluid, 0 h after addition
[10] = HMB final concentration 0.11 weight/volume % in Aminofluid, 24 h after addition, room temperature
[11] = HMB final concentration 0.21 weight/volume % in Aminofluid, 0 h after addition
[12] = HMB final concentration 0.42 weight/volume % in Aminofluid, 24 h after addition, room temperature

SMILES: CC(C)(O)CC(=O)[O-].[K+] [Example 5, potassium HMB nonhydrate]
- Insoluble salt formation (in words) [1]: do not form an insoluble salt
- Transmittance T % (660 nm) [1, 6]: 100%
- Transmittance T % (660 nm) [1, 7]: 100%
- Transmittance T % (660 nm) [1, 8]: 100%
- Solubility [2]: 1011 mg/mL
- Solubility (in terms of free form) [2]: 764 mg/mL
- Solubility in water compared to existing calcium salt (in words) [2]: greatly enhanced in the solubility in water
- pH [3]: 7.9

SMILES: CC(C)(O)CC(=O)[O-].[Na+] [Example 2, sodium HMB nonhydrate]
- Electrolyte abnormality (in words) [4]: does not induce the above electrolyte abnormality
- Transmittance T % (660 nm) [1, 6]: 100%
- Transmittance T % (660 nm) [1, 7]: 100%
- Transmittance T % (660 nm) [1, 8]: 100%
- Insoluble salt formation (in words) ([1]; mixing with phosphate buffer): do not form an insoluble salt
- Solubility ([2]; in water, room temperature): 729 mg/mL
- Solubility in water compared to existing calcium salt (in words) ([2]; in water, room temperature): greatly enhanced in the solubility in water
- Solubility (in terms of free form) ([2]; in water, room temperature, in terms of free HMB): 513 mg/mL
- pH [3]: 7.9
- Insoluble salt formation (in words) [5]: does not form an insoluble salt
- Transmittance T % (660 nm) [5, 9]: 100%
- Transmittance T % (660 nm) [5, 10]: 100%
- Transmittance T % (660 nm) [5, 11]: 100%
- Transmittance T % (660 nm) ([5]; HMB final concentration 0.21 weight/volume % in Aminofluid, 24 h after addition, room temperature): 100%
- Transmittance T % (660 nm) ([5]; HMB final concentration 0.42 weight/volume % in Aminofluid, 0 h after addition): 100%
- Transmittance T % (660 nm) [5, 12]: 100%

SMILES: CC(C)(O)CC(=O)O.N [Example 7, ammonium HMB nonhydrate]
- Insoluble salt formation (in words) [1]: do not form an insoluble salt
- Transmittance T % (660 nm) [1, 6]: 100%
- Transmittance T % (660 nm) [1, 7]: 100%
- Transmittance T % (660 nm) [1, 8]: 100%
- Solubility [2]: 660 mg/mL
- Solubility (in terms of free form) [2]: 577 mg/mL
- Solubility in water compared to existing calcium salt (in words) [2]: greatly enhanced in the solubility in water
- pH [3]: 5.7

SMILES: CC(C)(O)CC(=O)[O-].CC(C)(O)CC(=O)[O-].O.[Ca+2] [Calcium HMB hydrate, reference compound]
- Electrolyte abnormality (in words) [4]: induces the increase in urinary calcium and the decrease in urinary phosphate excretion
- Transmittance T % (660 nm) ([1]; mixing ratio 0.01 Vol/Vol (aqueous 100 g/L HMB solution/0.2M phosphate buffer pH 6.80)): 60%
- Transmittance T % (660 nm) [1, 7]: 0.02%
- Transmittance T % (660 nm) [1, 8]: 0%
- Insoluble salt formation (in words) ([1]; mixing with phosphate buffer): produces an insoluble salt
- Insoluble salt formation (in words) [5]: forms an insoluble salt
- Transmittance T % (660 nm) [5, 9]: 100%
- Transmittance T % (660 nm) [5, 10]: 70%
- Transmittance T % (660 nm) [5, 11]: 90%
- Transmittance T % (660 nm) [5, 12]: 20%
